# Earlier results in patent US7705151B2, “1,6 Naphthridines useful as inhibitors of SYK kinase” (Boehringer Ingelheim Pharmaceuticals, Inc., priority 2001, dated 2010).
# Tests used:
# [1] = test system: human mast cells
# [2] = test system: rodent mast cells
compound,measurement,setting,value
"Cc1ccc2c(=O)c3ccccc3n(CCCN)c2c1C.O=C(O)C(=O)O [ER-27319, 3,4-dimethyl-10-(3-aminopropyl)-9-acridone oxalate]",inhibition of anti-IgE mediated degranulation,[1],inhibit anti-IgE mediated degranulation
same,inhibition of anti-IgE mediated degranulation,[2],inhibit anti-IgE mediated degranulation
